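Protocol summary: plate cells (96-well), add compound at 5 concentrations, incubate 48 h, interpolate endpoints linearly. Definition used: TGI = concentration required for complete inhibition of growth.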
Legend:
Assay in all cases: NCI-60 cell line screen, 48 h
SK-MEL-2 melanoma = system: SK-MEL-2 melanoma
RXF 393 renal = system: RXF 393 renal
IGROV1 ovarian = system: IGROV1 ovarian
BT-549 breast = system: BT-549 breast
SF-539 CNS = system: SF-539 CNS
NCI/ADR-RES ovarian = system: NCI/ADR-RES ovarian
HL-60(TB) leukemia = system: HL-60(TB) leukemia
SN12C renal = system: SN12C renal
OVCAR-5 ovarian = system: OVCAR-5 ovarian
CCRF-CEM leukemia = system: CCRF-CEM leukemia
SNB-19 CNS = system: SNB-19 CNS
MCF7 breast = system: MCF7 breast
NCI-H460 lung = system: NCI-H460 lung
A498 renal = system: A498 renal
HCT-15 colon = system: HCT-15 colon
KM12 colon = system: KM12 colon
HCT-116 colon = system: HCT-116 colon
MALME-3M melanoma = system: MALME-3M melanoma
UO-31 renal = system: UO-31 renal
MDA-MB-435 = system: MDA-MB-435
OVCAR-8 ovarian = system: OVCAR-8 ovarian
NCI-H23 lung = system: NCI-H23 lung
SK-MEL-28 melanoma = system: SK-MEL-28 melanoma
A549 NSCLC = system: A549 NSCLC
MDA-N = system: MDA-N
CAKI-1 renal = system: CAKI-1 renal
HOP-92 NSCLC = system: HOP-92 NSCLC
SK-OV-3 ovarian = system: SK-OV-3 ovarian
COLO 205 colon = system: COLO 205 colon
EKVX NSCLC = system: EKVX NSCLC
SW-620 colon = system: SW-620 colon
HOP-62 NSCLC = system: HOP-62 NSCLC
OVCAR-4 ovarian = system: OVCAR-4 ovarian
SF-295 CNS = system: SF-295 CNS
ACHN renal = system: ACHN renal
K-562 leukemia = system: K-562 leukemia
MDA-MB-231 breast = system: MDA-MB-231 breast
LOX IMVI melanoma = system: LOX IMVI melanoma
HCC-2998 colon = system: HCC-2998 colon
SF-268 CNS = system: SF-268 CNS
UACC-257 melanoma = system: UACC-257 melanoma
SNB-75 CNS = system: SNB-75 CNS
TK-10 renal = system: TK-10 renal
DU-145 prostate = system: DU-145 prostate
NCI-H522 lung = system: NCI-H522 lung
PC-3 prostate = system: PC-3 prostate
MOLT-4 leukemia = system: MOLT-4 leukemia
M14 melanoma = system: M14 melanoma
786-0 renal = system: 786-0 renal
OVCAR-3 ovarian = system: OVCAR-3 ovarian
UACC-62 melanoma = system: UACC-62 melanoma
SK-MEL-5 melanoma = system: SK-MEL-5 melanoma
SR leukemia = system: SR leukemia
T-47D breast = system: T-47D breast
HT29 colon = system: HT29 colon
NCI-H226 lung = system: NCI-H226 lung
U251 CNS = system: U251 CNS

O=C1c2cccnc2-c2nccc3c2c1nc1ccc(Br)cc13
TGI (SK-MEL-2 melanoma): 0.306 µM | TGI (RXF 393 renal): 0.0691 µM | TGI (IGROV1 ovarian): 0.143 µM | TGI (BT-549 breast): 0.176 µM | TGI (SF-539 CNS): 0.141 µM | TGI (NCI/ADR-RES ovarian): 0.176 µM | TGI (HL-60(TB) leukemia): 0.0377 µM | TGI (SN12C renal): 0.205 µM | TGI (OVCAR-5 ovarian): 0.324 µM | TGI (CCRF-CEM leukemia): 0.133 µM | TGI (SNB-19 CNS): 0.295 µM | TGI (MCF7 breast): < 0.03 µM | TGI (NCI-H460 lung): 0.125 µM | TGI (A498 renal): 0.223 µM | TGI (HCT-15 colon): 0.116 µM | TGI (KM12 colon): 0.207 µM | TGI (HCT-116 colon): 0.0324 µM | TGI (MALME-3M melanoma): 0.338 µM | TGI (UO-31 renal): 0.202 µM | TGI (MDA-MB-435): 0.257 µM | TGI (OVCAR-8 ovarian): 0.223 µM | TGI (NCI-H23 lung): 0.12 µM | TGI (SK-MEL-28 melanoma): 0.169 µM | TGI (A549 NSCLC): 0.387 µM | TGI (MDA-N): 0.249 µM | TGI (CAKI-1 renal): 0.156 µM | TGI (HOP-92 NSCLC): 0.794 µM | TGI (SK-OV-3 ovarian): 0.389 µM | TGI (COLO 205 colon): 1.6 µM | TGI (EKVX NSCLC): 0.311 µM | TGI (SW-620 colon): 0.17 µM | TGI (HOP-62 NSCLC): 0.194 µM | TGI (OVCAR-4 ovarian): 0.324 µM | TGI (SF-295 CNS): 0.114 µM | TGI (ACHN renal): 0.0957 µM | TGI (K-562 leukemia): 0.331 µM | TGI (MDA-MB-231 breast): 0.211 µM | TGI (LOX IMVI melanoma): 0.0806 µM | TGI (HCC-2998 colon): 0.308 µM | TGI (SF-268 CNS): 0.143 µM | TGI (UACC-257 melanoma): 0.169 µM | TGI (SNB-75 CNS): 0.595 µM | TGI (TK-10 renal): 0.749 µM | TGI (DU-145 prostate): 0.0577 µM | TGI (NCI-H522 lung): 0.128 µM | TGI (PC-3 prostate): 0.234 µM | TGI (MOLT-4 leukemia): 0.569 µM | TGI (M14 melanoma): 0.0773 µM | TGI (786-0 renal): 0.0986 µM | TGI (OVCAR-3 ovarian): 0.0586 µM | TGI (UACC-62 melanoma): 0.124 µM | TGI (SK-MEL-5 melanoma): 0.0887 µM | TGI (SR leukemia): 0.0372 µM | TGI (T-47D breast): 0.552 µM | TGI (HT29 colon): 0.723 µM | TGI (NCI-H226 lung): 0.0639 µM | TGI (U251 CNS): 0.147 µM

From PubChem BioAssay (NCI)
